According to ChEMBL document CHEMBL2073834, “Transport of temocaprilat into rat hepatocytes: role of organic anion transporting polypeptide” (J Pharmacol Exp Ther, 1998):

Key:
Type in all cases: functional, cell-based
[1] = molecular target: T1, Solute carrier organic anion transporter family member 1A1 (Rattus norvegicus, UniProt P46720); experiment: TP_TRANSPORTER: inhibition of Temocaprilat uptake (Temocaprilat: 0.1 uM, DBSB: 100 uM) in Oatp1-expressing COS-7 cells; settings: monkey, cos-7, 100 µM
T1 sequence (P46720 whole entry): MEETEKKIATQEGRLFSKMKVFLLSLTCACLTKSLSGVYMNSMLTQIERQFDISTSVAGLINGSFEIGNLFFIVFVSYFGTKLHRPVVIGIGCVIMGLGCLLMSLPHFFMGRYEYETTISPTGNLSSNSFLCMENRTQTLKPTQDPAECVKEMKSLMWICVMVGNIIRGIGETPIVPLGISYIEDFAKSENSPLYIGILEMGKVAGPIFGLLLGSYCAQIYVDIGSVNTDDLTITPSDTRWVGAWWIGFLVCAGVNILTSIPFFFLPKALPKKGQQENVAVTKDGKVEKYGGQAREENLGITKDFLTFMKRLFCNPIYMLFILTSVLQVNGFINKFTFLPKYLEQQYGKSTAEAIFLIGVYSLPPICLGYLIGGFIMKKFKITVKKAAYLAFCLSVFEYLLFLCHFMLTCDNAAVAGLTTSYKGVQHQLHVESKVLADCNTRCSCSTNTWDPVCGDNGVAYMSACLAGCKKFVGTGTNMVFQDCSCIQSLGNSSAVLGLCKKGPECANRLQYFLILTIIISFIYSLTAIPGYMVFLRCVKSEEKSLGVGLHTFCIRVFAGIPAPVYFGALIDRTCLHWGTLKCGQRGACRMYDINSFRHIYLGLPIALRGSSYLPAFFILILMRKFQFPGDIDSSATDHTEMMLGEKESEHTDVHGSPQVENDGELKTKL

[2] = molecular target: T1, Solute carrier organic anion transporter family member 1A1; experiment: TP_TRANSPORTER: inhibition of Temocaprilat uptake (Temocaprilat: 0.1 uM, E217betaG: 10 uM) in Oatp1-expressing COS-7 cells; settings: monkey, cos-7, 10 µM
[3] = substrate: C[C@]12CC[C@@H]3c4ccc(O)cc4CC[C@H]3[C@@H]1CC[C@@H]2O[C@@H]1O[C@H](C(=O)O)[C@@H](O)[C@H](O)[C@H]1O; experiment: (§1) TP_TRANSPORTER: uptake in Oatp1-expressing COS-7 cells
[4] = substrate: O=C(O)CN1C[C@@H](c2cccs2)SC[C@H](N[C@@H](CCc2ccccc2)C(=O)O)C1=O; experiment: as §1

For `O=C1OC(c2ccc(OS(=O)(=O)O)cc2)(c2ccc(OS(=O)(=O)O)cc2)c2c(Br)ccc(Br)c21` [DIBROMOSULFOPHTHALEIN], the Activity [1] was “inhibitor [(at a rough estimate) 5 % of control]”.

With `C[C@]12CC[C@@H]3c4ccc(O)cc4CC[C@H]3[C@@H]1CC[C@@H]2O[C@@H]1O[C@H](C(=O)O)[C@@H](O)[C@H](O)[C@H]1O` [ESTRADIOL 17B GLUCURONIDE] the Activity [2] was “inhibitor [(at a rough estimate) 55 % of control]”.

B1: Solute carrier organic anion transporter family member 1A1 (Rattus norvegicus) (protein)
chain: MEETEKKIATQEGRLFSKMKVFLLSLTCACLTKSLSGVYMNSMLTQIERQFDISTSVAGLINGSFEIGNLFFIVFVSYFGTKLHRPVVIGIGCVIMGLGCLLMSLPHFFMGRYEYETTISPTGNLSSNSFLCMENRTQTLKPTQDPAECVKEMKSLMWICVMVGNIIRGIGETPIVPLGISYIEDFAKSENSPLYIGILEMGKVAGPIFGLLLGSYCAQIYVDIGSVNTDDLTITPSDTRWVGAWWIGFLVCAGVNILTSIPFFFLPKALPKKGQQENVAVTKDGKVEKYGGQAREENLGITKDFLTFMKRLFCNPIYMLFILTSVLQVNGFINKFTFLPKYLEQQYGKSTAEAIFLIGVYSLPPICLGYLIGGFIMKKFKITVKKAAYLAFCLSVFEYLLFLCHFMLTCDNAAVAGLTTSYKGVQHQLHVESKVLADCNTRCSCSTNTWDPVCGDNGVAYMSACLAGCKKFVGTGTNMVFQDCSCIQSLGNSSAVLGLCKKGPECANRLQYFLILTIIISFIYSLTAIPGYMVFLRCVKSEEKSLGVGLHTFCIRVFAGIPAPVYFGALIDRTCLHWGTLKCGQRGACRMYDINSFRHIYLGLPIALRGSSYLPAFFILILMRKFQFPGDIDSSATDHTEMMLGEKESEHTDVHGSPQVENDGELKTKL
With B1 the Km [3] was 11 µM and the Km [4] was 46.7 µM.
